Source: ChEMBL document CHEMBL1201862, “PubChem BioAssay data set” (2004)
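A five-concentration, 48-hour dose response in 96-well plates underlies each endpoint, interpolated linearly between surrounding concentrations. GI50 = concentration required for 50% inhibition of growth.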 Activity calls are given as the source filed them. Rule as the data show it: active = GI50 up to about 1.1 µM and inactive = higher.

Experiments:
Assay in all cases: DTP human tumour cell line panel, 48 h
786-0 = test system: 786-0
A549 = test system: A549
ACHN = test system: ACHN
COLO 205 = test system: COLO 205
EKVX = test system: EKVX
HCC 2998 = test system: HCC 2998
MDA-MB-435 = test system: MDA-MB-435
OVCAR-3 = test system: OVCAR-3
OVCAR-4 = test system: OVCAR-4
OVCAR-8 = test system: OVCAR-8
RPMI-8226 = test system: RPMI-8226
SF-268 = test system: SF-268
SF-539 = test system: SF-539
SK-MEL-28 = test system: SK-MEL-28
SK-MEL-2 = test system: SK-MEL-2
SN12C = test system: SN12C
SR = test system: SR
U-251 = test system: U-251
HT-29 = test system: HT-29
IGROV-1 = test system: IGROV-1

Structure (SMILES)	GI50 (786-0)	GI50 (A549)	GI50 (ACHN)	GI50 (COLO 205)	GI50 (EKVX)	GI50 (HCC 2998)	GI50 (MDA-MB-435)	GI50 (OVCAR-3)	GI50 (OVCAR-4)	GI50 (OVCAR-8)	GI50 (RPMI-8226)	GI50 (SF-268)	GI50 (SF-539)	GI50 (SK-MEL-28)	GI50 (SK-MEL-2)	GI50 (SN12C)	GI50 (SR)	GI50 (U-251)	GI50 (HT-29)	GI50 (IGROV-1)
NS(=O)(=O)c1nnc(NC(=O)C23CC4CC(CC(C4)C2)C3)s1	> 100 µM (inactive)	> 100 µM (inactive)	> 100 µM (inactive)	> 100 µM (inactive)	> 100 µM (inactive)	> 100 µM (inactive)	> 100 µM (inactive)	> 100 µM (inactive)	0.101 µM (active)	> 100 µM (inactive)	88.9 µM (inactive)	55.7 µM (inactive)	> 100 µM (inactive)	> 100 µM (inactive)	> 100 µM (inactive)	> 100 µM (inactive)	> 100 µM (inactive)	> 100 µM (inactive)	–	–
S=C(Nc1ccc2cn[nH]c2c1)Nc1ccc2cn[nH]c2c1	98.2 µM (inactive)	96.8 µM (inactive)	51.8 µM (inactive)	44.8 µM (inactive)	54 µM (inactive)	60.8 µM (inactive)	58.9 µM (inactive)	> 100 µM (inactive)	> 100 µM (inactive)	72.3 µM (inactive)	38 µM (inactive)	> 100 µM (inactive)	> 100 µM (inactive)	> 100 µM (inactive)	35.6 µM (inactive)	> 100 µM (inactive)	25.8 µM (inactive)	57.4 µM (inactive)	50 µM (inactive)	46.8 µM (inactive)
Clc1ccccc1C(Nc1ncccn1)Nc1ncccn1	> 100 µM (inactive)	> 100 µM (inactive)	> 100 µM (inactive)	> 100 µM (inactive)	> 100 µM (inactive)	> 100 µM (inactive)	76.6 µM (inactive)	> 100 µM (inactive)	> 100 µM (inactive)	> 100 µM (inactive)	> 100 µM (inactive)	> 100 µM (inactive)	> 100 µM (inactive)	> 100 µM (inactive)	> 100 µM (inactive)	> 100 µM (inactive)	8.15 µM (inactive)	> 100 µM (inactive)	> 100 µM (inactive)	> 100 µM (inactive)
